From US20220363673A1, “5-(Thiophen-2-YL)-1 H-Tetrazole Derivative as BCKDK Inhibitors Useful for Treating Various Diseases” (Pfizer Inc., priority 2019, published 2022)

What was measured:
[1] = system: Mice fed 60% high fat diet; assay: Diabetic Animal Model: fasting glucose and oral glucose tolerance test; type: in vivo; conditions: for fasting plasma glucose levels: mean±SEM, vehicle 185±18; for Area under the curve for the glucose tolerance test as percent of vehicle treated group: 1 g/kg dextrose, vehicle 100.0±7
Experimental: Mice fed 60% high fat diet (Research Diets 12492) were dosed PO with Example 1 for one day, fasted overnight, and blood glucose was measured with an alpha track glucometer. The animals were dosed again PO with Example 1 the next morning, and one hour later, blood glucose was measured again immediately using an alpha track glucometer (Zoetis, Parsippany, N.J.) to assess fasting glucose levels prior to oral gavage of 1 g/kg dextrose. Blood glucose was measured 15, 30, 60, and 120 minutes after the gavage, and the data were plotted and analyzed as area under the curve using GraphPad Prism 8.0 (GraphPad Software, La Jolla, Calif.). For animals that were dosed with vehicle or Example 1 as above, mean±SEM fasting plasma glucose levels were 185±18 (vehicle, n=7), 194±14 (3 mg/kg, n=9), 160±11 (10 mg/kg, n=10), 136±9 mg/dL (30 mg/kg, n=9). Area under the curve for the glucose tolerance test as percent of vehicle treated group was 100.0±7 (vehicle, n=7), 106±9 (3 mg/kg, n=9), 99±2 (10 mg/kg, n=10), 72±4 (30 mg/kg, n=9).

[2] = target: T1, human BCKDK (Homo sapiens, UniProt O14874); assay: In Vitro FRET (TR-FRET) BCKDK activity assay, phosphorylation of BCKDHE1α-E2 fusion substrate; type: biochemical; conditions: geometric mean, two significant figures; 15 μM ATP
T1 construct: human BCKDK (residues 31-412 of the protein pre-processing); 6xHis (N, cleaved yes); MBP (N, cleaved yes); TEV protease site (ENLYFQG) (N, cleaved yes); made in house; host or cells: BL21(DE3) E. coli, co-expressed with GroEL-GroES
Experimental: BCKDK protein was generated using a pET vector containing from N- to C-terminus: 6×His, MBP, a TEV protease site (ENLYFQG), a biotin acceptor peptide ([…]), and human BCKDK (residues 31-412 of the protein pre-processing). Protein was co-expressed with GroEL-GroES in BL21(DE3) E. coli in LB media, and protein production was induced with 0.5 mM IPTG and 0.5 mg/mL L-arabinose at an OD600 of 1 and grown for 16 h at 26° C. Bacteria were lysed using a Microfluidizer in 100 mM potassium phosphate pH 7.5, 500 mM NaCl, 0.1 mM EDTA, 1% Tween-20, 0.25% Triton X-100, 10% glycerol, 1 mM DTT, and protease inhibitors. MBP-tagged protein was purified by affinity chromatography using amylose resin, and MBP was removed from BCKDK by TEV protease incubation followed by gel filtration chromatography in 50 mM HEPES pH 7.5, 500 mM NaCl, 300 mM L-Arginine, 2 mM MgCl2, 1 mM DTT, and 10% glycerol.
A pET vector containing E. coli LplA was expressed in BL21(DE3) E. coli in LB media, and protein production was induced with 0.75 mM IPTG at an OD600 of 1 and grown for 16 h at 30° C. Bacteria were lysed using a Microfluidizer in 50 mM sodium phosphate buffer pH 7.5, 350 mM NaCl, 1.5 mM MgCl2, and 1 mM DTT. LplA protein was precipitated from clarified lysate with 1 M ammonium sulfate and further purified by gel filtration chromatography in 50 mM sodium phosphate pH 7.5, 350 mM NaCl, 1.5 mM MgCl2, 1 mM DTT, and 10% glycerol.
The BCKDHE1α-E2 fusion substrate was cloned into a pET vector and contained from N- to C-terminus: the lipoyl binding domain of E2 (residues 62-160 pre-processing), a TEV protease site (LENLYFQG), residues 331-345 (pre-processing) from E1α, and 6×His (Tso, S. C. et al., J Biol Chem 2014, 289 (30), 20583-20593). The fusion substrate was expressed in BL21(DE3) E. coli in LB media, and protein production was induced with 0.75 mM IPTG at an OD600 of 1 and grown for 16 h at 30° C. Bacteria were lysed using a Microfluidizer in 50 mM sodium phosphate pH 7.5, 350 mM NaCl, 10 mM imidazole, 10% glycerol, 1 mM DTT, and protease inhibitors. […] For lipoylation, fusion substrate was incubated with LplA at a 10:1 (substrate:LplA) ratio in 20 mM sodium phosphate pH 7.4, 6 mM MgCl2, 4 mM ATP, 2 mM DTT, 3 mM DL-6,8-thioctic acid at 37° C. The reaction was monitored using an Agilent 6530 Q-TOF coupled to an Agilent 1290 UPLC. The final lipoylated fusion substrate was purified by gel filtration chromatography in 50 mM HEPES pH 7.5, 350 mM NaCl, 1.5 mM MgCl2, 1 mM DTT, 10% glycerol.
BCKDK activity was monitored by phosphorylation of a HIS-tagged fusion BCKDHE1α-E2 substrate protein as described above and was detected using a time resolved-fluorescence resonance energy transfer (TR-FRET) assay system. Compounds were spotted into a 384 well plate, and purified human BCKDK protein was added to the plated compound. After incubation, the LBD-linker-E1 phosphorylation sequence was added in the presence of 15 μM ATP. The reaction was terminated with EDTA. Phosphorylated substrate was recognized by the addition of rabbit anti-E1 phospho Ser293 antibodies (Bethyl Laboratories—A304-672A), and the TR-FRET signal was developed by addition of anti-HIS donor molecules (Europium; Perkin Elmer—AD0205, AD0110, AD0111) and anti-Rabbit acceptor molecules (Ulight; Perkin Elmer—TRF502D, TRF502M, TRF502R). Recognition of phosphorylated E1 brought donor and acceptor molecules into close proximity, and excitation at 320 nm caused energy transfer from the Europium donor to the Ulight acceptor dye, which in turn generated light at 665 nm. Signal intensity was proportional to the level of BCKDK-mediated substrate phosphorylation. Reactions were normalized to zero percent effect with DMSO and one hundred percent effect with 600 μM Radicicol, a known BCKDK inhibitor. IC50 curves were generated using ABASE software (IDBS, Boston Mass.).

[3] = system: phosphorylation of S293 BCKDH; assay: Phospho BCKDHA AlphaLISA in human skeletal myocytes; type: cell-based; conditions: 1 h, 60 minutes, maximal effect relative to BT2
Experimental: Prior to conducting the assay, BCKDH antibodies (Bethyl A303-790A) were biotinylated using the ChromaLink™ One-Shot Antibody Biotinylation Kit B-9007-009K and phospho Ser293 BCKDHA antibodies (Bethyl A304-672A) were directly conjugated to AlphaLISA Acceptor Beads (custom conjugation performed by Perkin Elmer's Lance/Delfia Custom Services, Boston Mass.). Human skeletal myocytes (Gibco A11440) were plated in a 384 well plate at a density of 7500 live cells/well and grown in skeletal muscle growth media containing the media supplement and chick embryo extract (Promocell C-23060 and C-23160, MP92850145). After overnight incubation, media was removed, and BCKDK inhibitors were added in assay media (growth media diluted 10-fold in PBS). After 60 minutes, the media was removed, the cells were washed with PBS and lysed in 10 μL of buffer (Cell Signaling #9803) containing 2 nM biotinylated total BCKDH antibodies. Samples were incubated for 60 minutes, and 5 μL of AlphaLISA acceptor beads conjugated with phospho-S293 BCKDH antibodies were added 1× Alpha buffer. […] Fluorescence was emitted when the phospho and total BCKDH antibodies were within proximity, signifying phosphorylation of S293 BCKDH. Fluorescence was monitored on the Envision plate reader. The zero percent effect was determined from DMSO treatment and the maximal effect was assessed relative to the BCKDK inhibitor BT2. […]

[4] = system: Dahl salt sensitive male rats; assay: Heart Failure Rat Model, high salt diet; type: in vivo
Experimental: Dahl salt sensitive male rats (Charles River strain SS/JrHsdMcwiCrl) were fed control diet or 6% high salt diet (iD03121701-AIN-76a rodent diet with added 6% NaCl) for 21 weeks in total. At week 5, the high salt diet-fed rats were dosed PO with 100 mg/kg BT2 or vehicle once daily for the last 16 weeks of study. Echocardiography was performed at week 18 (myocardial performance index (MPI): control diet 0.567±0.034, high salt+vehicle 0.810±0.039, high salt+BT2 0.660±0.030; Isovolumic relaxation time (IVRT): control diet 23.154±0.60 ms, high salt+vehicle 36.507±2.20 ms, high salt+BT2 31.605±1.78 ms; Intraventricular septal thickness at diastole (IVDd): control 2.03±0.088 mm, high salt+vehicle 2.877±0.110 mm, high salt+BT2 2.489±0.089 mm). NT-pro-BNP (MSD K153JKD; control […], high salt+vehicle 1003.0±200.8 μg/mL, high salt+BT2 503.4±84.96 μg/mL), and proANP (MSD K153MBD; control 33.50±5.4 ng/mL, high salt 65.19±8.3 ng/mL, high salt+BT2 38.81±7.0 ng/mL) levels were measured in plasma using MSD assays at the terminal time point. Heart weights were measured at euthanasia and normalized to tibia length (heart/tibia control 0.033±0.001 g/mm; high salt+vehicle 0.042±0.001 g/mm, high salt+BT2 0.038±0.001 g/mm).

| IC50 [2] [µM] | IC50 [3] [µM] | SMILES | fasting plasma glucose levels ([1]; 3 mg/kg PO, n=9) [mg/dL] | Area under the curve for the glucose tolerance test as percent of vehicle treated group ([1]; 3 mg/kg PO, n=9) | fasting plasma glucose levels ([1]; 10 mg/kg PO, n=10) [mg/dL] | Area under the curve for the glucose tolerance test as percent of vehicle treated group ([1]; 10 mg/kg PO, n=10) | fasting plasma glucose levels ([1]; 30 mg/kg PO, n=9) [mg/dL] | Area under the curve for the glucose tolerance test as percent of vehicle treated group ([1]; 30 mg/kg PO, n=9) | Heart weight normalized to tibia length (heart/tibia) ([4]; at euthanasia, 100 mg/kg PO once daily, control 0.033±0.001, high salt+vehicle 0.042±0.001) [g/mm] | Intraventricular septal thickness at diastole (IVDd) ([4]; echocardiography week 18, 100 mg/kg PO once daily, control 2.03±0.088, high salt+vehicle 2.877±0.110) [mm] | myocardial performance index (MPI) ([4]; echocardiography week 18, 100 mg/kg PO once daily, control diet 0.567±0.034, high salt+vehicle 0.810±0.039) | Isovolumic relaxation time (IVRT) ([4]; echocardiography week 18, 100 mg/kg PO once daily, control diet 23.154±0.60, high salt+vehicle 36.507±2.20) [ms] | proANP level in plasma ([4]; terminal time point, 100 mg/kg PO once daily, control 33.50±5.4, high salt 65.19±8.3) [ng/mL] |
| --- | --- | --- | --- | --- | --- | --- | --- | --- | --- | --- | --- | --- | --- |
| 1.9 | 18 ± 2.3 | Cc1c(Br)csc1-c1nnn[nH]1 [Example 1, 5-(4-Bromo-3-methylthiophen-2-yl)-1H-tetrazole] | 194 ± 14 | 106±9% of vehicle treated group | 160 ± 11 | 99±2% of vehicle treated group | 136 ± 9 | 72±4% of vehicle treated group | – | – | – | – | – |
| – | – | O=C(O)c1sc2cc(Cl)ccc2c1Cl [BT2] | – | – | – | – | – | – | 0.038±0.001 | 2.489±0.089 | 0.660±0.030 | 31.605 ± 1.78 | 38.81 ± 7.0 |
| 1.4 | 11 ± 0.87 | Cc1cc(Cl)sc1-c1nnn[nH]1 [Example 9, 5-(5-Chloro-3-methylthiophen-2-yl)-1H-tetrazole] | – | – | – | – | – | – | – | – | – | – | – |
